Assay [1] addresses T1, nucleoside hydrolase (Crithidia fasciculata, UniProt Q27546).
T1 construct: nucleoside hydrolase was purified from C. fasciculata as described above; endogenous in cells; host or cells: Crithidia fasciculata cells grown in a 300-liter fermenter
T1 sequence (Q27546 1-315): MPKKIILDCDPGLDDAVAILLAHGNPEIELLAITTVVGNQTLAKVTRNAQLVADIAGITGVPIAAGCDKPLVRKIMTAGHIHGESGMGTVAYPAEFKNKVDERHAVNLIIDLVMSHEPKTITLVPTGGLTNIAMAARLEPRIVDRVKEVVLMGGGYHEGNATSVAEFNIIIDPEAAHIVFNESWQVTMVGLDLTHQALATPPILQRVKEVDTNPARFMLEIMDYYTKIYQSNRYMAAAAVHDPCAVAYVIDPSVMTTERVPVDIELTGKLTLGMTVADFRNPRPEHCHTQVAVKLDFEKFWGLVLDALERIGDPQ
The assay is described as follows: Nucleoside hydrolase purified from C. fasciculata: substrate kinetics and inhibition (Table III). The format is biochemical. The note with it: for Substrate or inhibitor concentration (substrate activity limit; nucleoside concentration in parentheses): Table III lower part; for Km / Vmax: Table III; for Km / Vmax / Vmax /Km: compound as substrate; for inhibition pattern: vs inosine. Here is the method:
The assay volumes were […]. The reaction was terminated by the addition of […] of 1.0 M HCl. […] The color was developed at 95° C. for 8 minutes and the optical absorbance measured at 450 nm. Enzymatic activity was expressed as millimoles of reducing sugar formed per minute per milligram of protein. During the initial stages of purification a modified assay which removes excess protein was used. Protein solutions of 1-5 ml were added to 100 ml of the assay mixture and incubated for the desired time. The assay was terminated by the addition of […] of 0.1 M ZnSO4. Excess Zn^2+ was removed by the addition of […] of 0.1 M NaOH. After centrifugation, 250 ml of supernatant was removed and assayed for reducing sugar. […] Arsenate readily replaces phosphate in the reaction and the product ribose 1-arsenate rapidly hydrolazes to release ribose which is detected in the reducing sugar assay.
At other pH values, a mixed buffer system was used which contained 30 mM each of acetate. Mes, Pipes, Hepes, Bicine, and Ches were adjusted to the desired pH with HCl or NaOH. The reaction was initiated with a small volume of enzyme and the increase in absorbance recorded at 280 nm.
Assay mixtures of 19 ml contained the desired concentration of inosine and inhibitor(s) together with approximately 3×10^4 cpm of radioactive inosine in 50 mM Hepes or triethanolamine buffer, pH 7.3. […] Samples of […] were removed at the appropriate intervals and spotted on polyethyleneimine cellulose thin layer plates which had been previously spotted with 4 ml of a solution containing 2.2 mM each of inosine and hypoxanthine.
Reaction mixtures were incubated for 5-27 hours and samples analyzed on a 7.8 mm×30 cm C18 -HPLC column eluted with 5 or 10% methanol in H2 O, 4 ml/minute. Samples were detected by the absorbance at 257 nm. Substrate activity with deoxyinosine was also measured at 500 MHz by NMR. […] Proton NMR spectra were collected in sets of eight scans over 15 minutes at room temperature.
Apparent inhibition constants (Ki(app)) were determined from the relationship shown in the following equation:
Vo /Vi +(inosine±Km (1+I/Ki(app))/(inosine+Km)
where Vo and Vi are the initial reaction rates without and with inhibitor, respectively. Km is the Michaelis constant for inosine, I is inhibitor concentration and Ki(app) is the apparent dissociation constant for inhibitor. In cases where the inhibitor is competitive with respect to substrate, Ki(app) is the dissociation constant for the enzyme-inhibitor complex.

Assay [2] has as its target T2, IU-nucleoside hydrolase (Crithidia fasciculata, UniProt Q27546, P2A).
T2 construct: contained the coding region for the enzyme; made in house; host or cells: E. coli BL21 (DE3)pLysS, pET3d plasmid
The assay can be described thus: biochemical. Type of assay: biochemical, C. fasciculata. The note with it: for Ki: KI IU-nucleoside hydrolase, Table V; for inhibition pattern: minimum of four substrate and three inhibitor concentrations. An excerpt:
Enzymes. Inosine-uridine nucleoside hydrolase (IU-nucleoside hydrolase) was purified from extracts of E. coli strain BL21 (DE3)pLysS which contained the coding region for the enzyme isolated from C. fasciculata in a pET3d expression plasmid. The DNA coding for the enzyme was placed in the NcoI-BamHI site. This construct gives a Pro2Ala substitution which has no significant effect on the kinetic properties of the purified enzyme. The overexpressed enzyme was purified to apparent homogeneity as previously described (Gopaul, et al. (1996) Biochemistry 35, 5963-5970).
(§1) Enzyme Assays. Initial rate measurements were accomplished at 30° C. in reaction mixtures containing 50 mM potassium phosphate, pH 7.5, or 50 mM Hepes, pH 8.0, and nitrophenylribose or inosine as substrates (Mazella, et al. (1996) J. Am. Chem. Soc. 118, 2111-2112). At pH 7.5 the product p-nitrophenylate anion is present at a concentration which gives a millimolar extinction coefficient of 9.3 cm^-1 at 400 nm. Reaction mixtures with nitrophenylribose as substrate were initiated by the addition of enzyme, and product formation was monitored by continuous recording at 400 nm. With inosine as substrate, the conversion to hypoxanthine was monitored continuously at 280 nm (Parkin, et al. (1991) J. Biol. Chem. 266, 20658-20665). […] The remainder of the inhibitors were analyzed at one fixed substrate concentration and variable inhibitor concentrations. Inhibition constants for IAG-nucleoside hydrolase were established from full kinetic analysis with V and X as inhibitors. […] The remainder of the inhibition constants were characterized by titration of assay mixtures containing a fixed concentration of substrate with variable inhibitor concentrations. […] For Ki determination at a fixed substrate concentration, this approach assumes that substrate and inhibitor compete for the catalytic site.
Inhibitors. Iminoribitol inhibitor were synthesized and purified according to the methods of Furneaux, et al. (Tetrahedron (1997) in press), characterized by NMR, dissolved in H2 O and stored at -20° C. The compounds are enzymatically and chemically stable in H2 O and under conditions of the assay. IU-Nucleoside hydrolase is susceptible to slow-onset tight-binding inhibition under certain conditions (Horenstein & Schramm, (1993b) Biochemistry 32, 9917-9925, Boutellier, et al. (1994) Biochemistry, 33, 3994-4000). However, in the initial reaction rate conditions described here, only the rapidly reversible competition between substrate and inhibitor is being observed. Thus, the reported kinetic constants are dissociation constants which exclude slow-onset binding.

Assay [3] addresses IAG-nucleoside hydrolase (Trypanosoma brucei, UniProt Q57ZL6). The assay can be described thus: Inhibition of IAG-nucleoside hydrolase, initial rates. Here is the method:
The enzyme was purified to apparent homogeneity as determined by denaturing polyacrylamide gel electrophoresis (Parkin, (1996) J. Biol. Chem. 271, 21713-21719). Some of the studies used the T. brucei brucei enzyme which was overexpressed in E. coli.
as §1, with “concentrations.” for “concentrations. Inhibition constants for IAG-nucleoside hydrolase were established from full kinetic analysis with V and X as inhibitors.”
Inhibitors. Iminoribitol inhibitor were synthesized and purified according to the methods of Furneaux, et al. (Tetrahedron (1997) in press), characterized by NMR, dissolved in H2 O and stored at -20° C.

[4] abbreviates: apparent constant, single inosine concentration near Km, three inhibitor concentrations, read-out: Ki(app).

The results in this text go back to patent publication US6121296A, “Transition-state inhibitors for nucleoside hydrolase and transferase reactions” (Albert Einstein College of Medicine of Yeshiva University, priority 1998, dated 2000).

Entries after “also recorded” stand apart in the source; their conditions may differ. Where two headings read alike, the source gives them in different places.

Sequence of IAG-nucleoside hydrolase (Q57ZL6 entry or part of it): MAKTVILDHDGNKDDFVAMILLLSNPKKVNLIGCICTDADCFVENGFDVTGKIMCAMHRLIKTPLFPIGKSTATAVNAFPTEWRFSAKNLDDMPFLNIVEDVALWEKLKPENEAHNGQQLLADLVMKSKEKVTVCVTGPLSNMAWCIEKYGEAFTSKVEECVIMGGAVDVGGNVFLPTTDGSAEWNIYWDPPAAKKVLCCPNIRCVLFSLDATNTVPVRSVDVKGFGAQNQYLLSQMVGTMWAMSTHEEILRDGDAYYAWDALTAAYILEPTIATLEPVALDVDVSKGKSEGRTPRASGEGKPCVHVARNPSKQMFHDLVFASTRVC
T2 sequence (Q27546 whole entry P2A): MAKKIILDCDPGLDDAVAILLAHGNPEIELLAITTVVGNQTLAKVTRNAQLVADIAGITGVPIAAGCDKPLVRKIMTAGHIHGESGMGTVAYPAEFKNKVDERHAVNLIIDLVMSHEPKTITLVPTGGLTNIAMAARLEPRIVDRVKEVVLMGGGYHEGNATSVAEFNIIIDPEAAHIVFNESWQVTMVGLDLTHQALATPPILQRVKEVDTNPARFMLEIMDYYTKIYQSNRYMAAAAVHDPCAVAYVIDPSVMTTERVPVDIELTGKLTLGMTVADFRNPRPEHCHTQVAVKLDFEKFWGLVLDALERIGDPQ

On to `Nc1ncnc2c1ncn2C1CC(O)C(CO)O1` (stereo not drawn) [d-Adenosine], for which the “Substrate or inhibitor concentration (substrate activity limit; nucleoside concentration in parentheses)” value in assay [1] was below 0.0006. For the same compound, the Ki in assay [1] (setting [4]) was found to be 3200 µM.
Turning to `C[C@H]1O[C@@H](n2cnc3c(=O)[nH]cnc32)[C@H](O)[C@@H]1O` [5d-inosine], in assay [1], the “substrate activity” value is given as “Low rates of product formation”.
As for Cytosine, in assay [1], the Km came to 4700 µM, the Vmax worked out at 36 ± 3 µmol/min/mg and the “Vmax /Km” value is 4.5 × 10^3 M^-1 S^-1.
`Nc1ncnc2c1ccn2[C@@H]1O[C@H](CO)[C@@H](O)[C@H]1O` [7-Deazaadenosine, 7-deazaadenosine]: in assay [1], the Ki was 2300 µM, the “rate of hydrolysis relative to the rate with inosine (detection level)” value is < 3×10^-4, the “Substrate or inhibitor concentration (substrate activity limit; nucleoside concentration in parentheses)” value was below 0.0008 and the inhibition pattern entry is “competitive inhibitor”. Further, the “substrate activity” value in assay [1] (listed as tubercidin) is “not a substrate; also recorded: lack of substrate activity”.
For the compound `OC[C@H]1N[C@@H](c2ccc(Cl)cc2)[C@H](O)[C@@H]1O` [XI], in assay [2], the Ki turned out to be 0.03 ± 0.0014 µM and the inhibition pattern result is “slope-linear competitive inhibitors”. In addition, in assay [3], the Ki was found to be 190 ± 8 µM and the “Km /KI IAG-nucleoside hydrolase” value amounted to 0.095.
With `OC[C@H]1N[C@@H](c2ccc(O)cc2)[C@H](O)[C@@H]1O` [VII], the Ki in assay [2] was determined as 0.075 ± 0.004 µM. In assay [3], the Ki was 35 ± 2 µM and the “Km /KI IAG-nucleoside hydrolase” value was determined as 0.51.
For the compound `O=C[C@H](O)[C@H](O)[C@H](O)CO` [Ribose], in assay [1], the Ki turned out to be 700 ± 100 µM and the inhibition pattern result is “slope-linear, competitive patterns”.
As to `Nc1cccc([C@@H]2N[C@H](CO)[C@@H](O)[C@H]2O)c1` [IX], the Ki in assay [2] was determined as 0.051 ± 0.004 µM. For the same compound, in assay [3], the Ki was 38 ± 4 µM and the “Km /KI IAG-nucleoside hydrolase” value was determined as 0.47.
For the compound `OC[C@H]1O[C@@H](n2cnc3c(O)ncnc32)[C@H](O)[C@@H]1O` [Inosine], in assay [1], the “Vmax /Km for inosine relative to adenosine” value is 7.8 times, the Km was 380 ± 30 µM, the Vmax came out at 50 ± 2 µmol/min/mg and the “Vmax /Km” value was 7.6×10^-4 M^-1 S^-1.
On to `CSC[C@H]1O[C@@H](n2cnc3c(N)ncnc32)[C@H](O)[C@@H]1O` [5'-Methylthioadenosine], for which, in assay [1], the Ki worked out at 5700 µM and the “Substrate or inhibitor concentration (substrate activity limit; nucleoside concentration in parentheses)” value is given as below 0.0003.
For `O=c1[nH]cnc2c([C@@H]3O[C@H](CO)[C@@H](O)[C@H]3O)n[nH]c12` [Formycin B] the same measures were 1960 µM and below 0.02.
Take `OC[C@H]1O[C@@H](n2cnc3cncnc32)[C@H](O)[C@@H]1O` [Purine riboside]: in assay [1], the “substrate activity” value is recorded as “poor substrate” and the “Vmax /Km” value is on record as 1.5×10^2 M^-1 S^-1.
As to `O=c1[nH]cnc2nc[nH]c12` [Hypoxanthine], in assay [1], the Ki came out at 6200 ± 900 µM and the inhibition pattern result is “slope-linear, competitive patterns”.
Consider `OC[C@H]1N[C@@H](c2ccc(Br)cc2)[C@H](O)[C@@H]1O` [XII], for which, in assay [2], the Ki was 0.028 ± 0.004 µM and the inhibition pattern entry was “slope-linear competitive inhibitors”. In assay [3], the Ki is 113 ± 5 µM and the “Km /KI IAG-nucleoside hydrolase” value came to 0.16.
With `Cc1cn([C@H]2C[C@H](O)[C@@H](CO)O2)c(=O)[nH]c1=O` [Thymidine], in assay [1], the Ki turned out to be 7800 µM, the “substrate activity” value is recorded as “no activity being detected” and the “Substrate or inhibitor concentration (substrate activity limit; nucleoside concentration in parentheses)” value was below 0.0008. In assay [1] (effect of the 2'-hydroxyl), the “apparent Vmax difference, 5-methyluridine vs thymidine” value is > 10^5.
`O=c1[nH]cnc2c1ncn2[C@H]1C[C@H](O)[C@@H](CO)O1` [d-Inosine]: in assay [1], the “Substrate or inhibitor concentration (substrate activity limit; nucleoside concentration in parentheses)” value is recorded as below 0.0003. The Ki in assay [1] (setting [4]) turned out to be 2300 µM.
For `O=[N+]([O-])c1ccc(O[C@@H]2O[C@H](CO)[C@@H](O)[C@H]2O)cc1` [nitrophenylribose, reference compound], the Km in assay [2] (compound as substrate) is 64 ± 6 µM.
As for `Nc1ncnc2c1ncn2[C@@H]1O[C@H](COP(=O)(O)O)[C@@H](O)[C@H]1O` [AMP], in assay [1], the Ki turned out to be 44000 µM and the “Substrate or inhibitor concentration (substrate activity limit; nucleoside concentration in parentheses)” value was below 0.01.
`C[C@H]1O[C@@H](n2cnc3c(N)ncnc32)[C@H](O)[C@@H]1O` [5d-adenosine, 5'-Deoxyadenosine]: the “substrate activity” value in assay [1] is listed as “Low rates of product formation”.
As to `Nc1ncnc2c1ncn2[C@@H]1O[C@H](CO)C[C@H]1O` [3'-d-Adenosine], in assay [1], the Ki turned out to be 7290 µM and the “Substrate or inhibitor concentration (substrate activity limit; nucleoside concentration in parentheses)” value is below 0.16.

In general, Km refers to the substrate concentration at which the rate is half of its maximum. In general, Vmax refers to the rate approached at saturating substrate.
